The values below come from patent publication EP4667483A1, “HUMAN TRANSFERRIN RECEPTOR-BINDING PEPTIDE” (JCR Pharmaceuticals Co., Ltd., priority 2023, dated 2024).

pKd: −log10 of the molar value. Numbered stars: 1 amine (or outer) side, 2 acyl side, 3 side chain; on linkers, the order of the positions; unused ones are H or OH. Bridge positions count the residues as written; N and C are the ends. Square brackets hold non-standard residues; d marks the D form. Peptide text beside a SMILES is read from it. * marks the point of attachment. Trp(1-CH2COOH) = N[C@@H](Cc1cn(CC(=O)O)c2ccccc12)C(=O)O; NMePhe(3-Cl) = CN[C@@H](Cc1cccc(Cl)c1)C(=O)O; NMeW = CN[C@@H](Cc1c[nH]c2ccccc12)C(=O)O; X6 = Cc1cc(C[C@H](N[*:1])C(=O)[*:2])ccn1; NMeY = CN[C@@H](Cc1ccc(O)cc1)C(=O)O; Nva(3-Et) = CCC(CC)[C@H](N)C(=O)O; PEG4 = NCCOCCOCCOCCOCCC(=O)O; Carboxymethyl = O=C(O)C*

The first test deals with human transferrin receptor (hTfR) (Homo sapiens, UniProt P02786). Put plainly: SPR measurement under pH 6.0 conditions (Biacore T200, NTA chip, immobilized hTfR). The format is binding. Particulars: SPR, pH 6.0; Table 2-1-2; read-out: hTfR SPR pH6.0 KD. The method, then: Molecular interactions between the synthesized peptides and the transferrin receptor (hTfR) were evaluated by surface plasmon resonance (SPR) using the following method. The specific assay procedure is described below.
Sequence of human transferrin receptor (hTfR) (P02786 whole entry): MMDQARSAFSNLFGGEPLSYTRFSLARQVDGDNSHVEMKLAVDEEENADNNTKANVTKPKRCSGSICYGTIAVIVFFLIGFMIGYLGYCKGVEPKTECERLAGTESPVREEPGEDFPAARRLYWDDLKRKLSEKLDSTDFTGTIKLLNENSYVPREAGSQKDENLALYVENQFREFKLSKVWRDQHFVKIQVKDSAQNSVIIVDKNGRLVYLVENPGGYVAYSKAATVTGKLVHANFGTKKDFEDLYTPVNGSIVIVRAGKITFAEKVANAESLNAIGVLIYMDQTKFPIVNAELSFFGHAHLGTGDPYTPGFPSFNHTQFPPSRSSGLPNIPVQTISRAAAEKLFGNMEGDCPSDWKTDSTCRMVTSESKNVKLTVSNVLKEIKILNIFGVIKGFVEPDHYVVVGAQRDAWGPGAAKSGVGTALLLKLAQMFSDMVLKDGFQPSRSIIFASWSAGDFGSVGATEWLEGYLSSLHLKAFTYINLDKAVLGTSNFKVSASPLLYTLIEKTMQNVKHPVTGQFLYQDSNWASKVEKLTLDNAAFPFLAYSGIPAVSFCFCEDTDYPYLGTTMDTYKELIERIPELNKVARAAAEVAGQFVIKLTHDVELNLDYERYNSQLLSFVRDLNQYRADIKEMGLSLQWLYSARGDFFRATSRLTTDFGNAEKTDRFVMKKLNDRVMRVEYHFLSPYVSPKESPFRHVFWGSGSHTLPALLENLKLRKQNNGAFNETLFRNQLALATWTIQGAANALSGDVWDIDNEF
An NTA sensor chip (Cytiva) was inserted in a Biacore T200 (Cytiva), a priming operation was performed 3 times with a running buffer: HBS-P+ pH 6.0 (Cytiva), and an equilibrium state was created at a flow rate of 30 µL/min. A ligand immobilization operation was carried out at a flow rate of 10 µL/min.
The surface of the NTA sensor chip was washed with 350 mM EDTA solution, nickel ions were loaded into the carbomethyldextran chains of the sensor chip with a 500 µM aqueous nickel chloride solution, and then washing was performed with 3 mM EDTA solution. After mixing 50 µL of each of 60 mM EDC solution (Cytiva) and 650 mM NHS solution (Cytiva), the mixture was reacted for 420 seconds at a flow rate of 10 µL/min. 150 µL of 0.2 µM hTfR solution was prepared by diluting with 10 mM acetic acid solution (pH 5.0), and reacted for 420 seconds at a flow rate of 10 µL/min to immobilize hTfR on the NTA sensor chip. For the human transferrin receptor (hTfR), the recombinant hTfR described in Example 2 of WO2018/124121 was used. After immobilization, capping was performed by reacting with 1.0 M ethanolamine aqueous solution (Cytiva) at a flow rate of 10 µL/min for 420 seconds. Peptide lysate prepared in DMSO to 10 mM was diluted with the running buffer to a final concentration of 10 µM peptide lysate, and then peptide solutions of 250 nM, 125 nM, 62.5 nM, 25 nM, and 12.5 nM were prepared. The kinetics of the peptide against hTfR was obtained by SPR measurement using the above samples.
The kinetic evaluation model was single-cycle kinetics, and curve fitting was performed using Biacore T200 Evaluation Software Version 3.0 (Cytiva). The binding of the peptide to hTfR was evaluated by performing curve fitting on the obtained sensorgram by the least squares method and obtaining the kon value, the koff value, and the KD value.
Background: Surface plasmon resonance follows binding to a sensor surface in real time, without labels.
Usually pKd stands for the Kd on a negative log10 scale, so that one unit is a factor of ten. For `CCC(CC)[C@@H]1NC(=O)[C@H](Cc2ccc(OCC(=O)O)cc2)NC(=O)[C@H](Cc2ccc(NCC(=O)O)nc2)NC(=O)[C@H](CC(N)=O)NC(=O)[C@H](Cc2cn(CC(=O)O)c3ccccc23)NC(=O)[C@H](C(C)C)NC(=O)[C@H](Cc2cccc(Cl)c2)N(C)C(=O)[C@H](C(C)C)NC(=O)[C@H](C)NC(=O)CSC[C@@H](C(=O)NCCOCCOCCOCCOCCC(N)=O)NC(=O)[C@H](Cc2ccc(O)cc2)N(C)C(=O)[C@H](Cc2cccc(C(=O)O)c2)NC(=O)[C@H](CCCNC(=N)N)NC(=O)[C@H](CCC(N)=O)NC(=O)[C@H]([C@@H](C)CC)NC1=O` [compound 150], the pKd was 7.23.

Regarding `CCC(CC)[C@@H]1NC(=O)[C@H](Cc2ccc(NCC(=O)O)nc2)NC(=O)[C@H](Cc2ccc(O)cc2)NC(=O)[C@H](CC(N)=O)NC(=O)[C@H](Cc2cn(CC(=O)O)c3ccccc23)NC(=O)[C@H](C(C)C)NC(=O)[C@H](Cc2cccc(Cl)c2)N(C)C(=O)[C@H](C(C)C)NC(=O)[C@H](C)NC(=O)CSC[C@@H](C(=O)NCCOCCOCCOCCOCCC(N)=O)NC(=O)[C@H](Cc2ccc(O)cc2)N(C)C(=O)[C@H](Cc2cccc(C(=O)O)c2)NC(=O)[C@H](CCCNC(=N)N)NC(=O)[C@H](CCC(N)=O)NC(=O)[C@H]([C@@H](C)CC)NC1=O` [compound 151], the pKd was 7.32.

For the compound `CCC(CC)[C@@H]1NC(=O)[C@H](Cc2ccc(OCC(=O)O)cc2)NC(=O)[C@H](Cc2ccc(O)cc2)NC(=O)[C@H](CC(N)=O)NC(=O)[C@H](Cc2cn(CC(=O)O)c3ccccc23)NC(=O)[C@H](C(C)C)NC(=O)[C@H](Cc2cccc(Cl)c2)N(C)C(=O)[C@H](C(C)C)NC(=O)[C@H](C)NC(=O)CSC[C@@H](C(=O)NCCOCCOCCOCCOCCC(N)=O)NC(=O)[C@H](Cc2ccc(O)cc2)N(C)C(=O)[C@H](Cc2ccnc(C)c2)NC(=O)[C@H](CCCNC(=N)N)NC(=O)[C@H](CCC(N)=O)NC(=O)[C@H]([C@@H](C)CC)NC1=O` [compound 152] ({CH2CO}-AV[NMePhe(3-Cl)]V[Trp(1-CH2COOH)]NYY(Carboxymethyl)[Nva(3-Et)]IQR[X6][NMeY]C[PEG4]-NH2; thioether N-15), the pKd was 6.94.

The test is the same for the next values; noted with them: SPR, pH 6.0; peptide with the linker named in the table; read-out: hTfR SPR pH6.0 KD.
Turning to `CC[C@H](C)[C@@H]1NC(=O)[C@H](Cc2ccc(O)cc2)NC(=O)[C@H](Cc2ccc(N)nc2)NC(=O)[C@H](CC(N)=O)NC(=O)[C@H](Cc2c[nH]c3ccccc23)NC(=O)[C@H](C(C)C)NC(=O)[C@H](Cc2ccccc2)N(C)C(=O)[C@H](C(C)C)NC(=O)[C@H](C)NC(=O)CSC[C@@H](C(=O)NCCOCCOCCOCCOCCC(N)=O)NC(=O)[C@H](Cc2ccc(O)cc2)N(C)C(=O)[C@H](Cc2ccc(O)cc2)NC(=O)[C@H](CCCNC(=N)N)NC(=O)[C@H](CCCCN)NC(=O)[C@H]([C@@H](C)CC)NC1=O` [compound 123], the pKd was 7.76.

On to `CCC(CC)[C@@H]1NC(=O)[C@H](Cc2ccc(O)cc2)NC(=O)[C@H](Cc2ccc(O)cc2)NC(=O)[C@H](CC(N)=O)NC(=O)[C@H](Cc2c[nH]c3ccccc23)N(C)C(=O)[C@H](C(C)C)NC(=O)[C@H](Cc2cccc(Cl)c2)N(C)C(=O)[C@H](C(C)C)NC(=O)[C@H](C)NC(=O)CSC[C@@H](C(=O)NCCOCCOCCOCCOCCC(N)=O)NC(=O)[C@H](Cc2ccc(O)cc2)N(C)C(=O)[C@H](Cc2ccc(O)cc2)NC(=O)[C@H](CCCNC(=N)N)NC(=O)[C@H](CCCCN)NC(=O)[C@H](CO)NC1=O` [compound 132] ({CH2CO}-AV[NMePhe(3-Cl)]V[NMeW]NYY[Nva(3-Et)]SKRY[NMeY]C[PEG4]-NH2; thioether N-15), for which the pKd is 7.88.

Take `CC[C@H](C)[C@@H]1NC(=O)[C@H](Cc2ccc(O)cc2)NC(=O)[C@H](Cc2ccc(O)cc2)NC(=O)[C@H](CC(N)=O)NC(=O)[C@H](Cc2c[nH]c3ccccc23)N(C)C(=O)[C@H](C(C)C)NC(=O)[C@H](Cc2cccnc2)N(C)C(=O)[C@H](C(C)C)NC(=O)[C@H](C)NC(=O)CSC[C@@H](C(=O)NCCOCCOCCOCCOCCC(N)=O)NC(=O)[C@H](Cc2ccc(O)cc2)N(C)C(=O)[C@H](Cc2ccc(O)cc2)NC(=O)[C@H](CCCNC(=N)N)NC(=O)[C@H](CCCCN)NC(=O)[C@H]([C@@H](C)CC)NC1=O` [compound 135]: the pKd was 7.82.
